The nature of test [1]: Trypanosoma cruzi growth suppression in host cells – NIH3T3 host cells, beta-gal luminescence, confirmation (AID 2044).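 Note: intracellular parasites grown in NIH/3T3 mouse fibroblasts as host cells; luminescent beta-galactosidase reporter signal from transgenic T. cruzi replicating inside host cells; inhibitors lower the luminescence signal.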 It is filed as functional, cell-based.
Test [2] is described as follows: NIH3T3 cell viability loss – ATP luminescence, mouse fibroblasts, counter-screen, dose response (AID 2010).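 Note: cells exposed to compound for about 90 hours before reading.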 It is filed as functional, cell-based. (Counterscreens check selectivity or assay interference.)
The target of test [3] is T1, Short transient receptor potential channel 4 (Mus musculus, UniProt Q9QUQ5).
T1 sequence (Q9QUQ5 whole entry): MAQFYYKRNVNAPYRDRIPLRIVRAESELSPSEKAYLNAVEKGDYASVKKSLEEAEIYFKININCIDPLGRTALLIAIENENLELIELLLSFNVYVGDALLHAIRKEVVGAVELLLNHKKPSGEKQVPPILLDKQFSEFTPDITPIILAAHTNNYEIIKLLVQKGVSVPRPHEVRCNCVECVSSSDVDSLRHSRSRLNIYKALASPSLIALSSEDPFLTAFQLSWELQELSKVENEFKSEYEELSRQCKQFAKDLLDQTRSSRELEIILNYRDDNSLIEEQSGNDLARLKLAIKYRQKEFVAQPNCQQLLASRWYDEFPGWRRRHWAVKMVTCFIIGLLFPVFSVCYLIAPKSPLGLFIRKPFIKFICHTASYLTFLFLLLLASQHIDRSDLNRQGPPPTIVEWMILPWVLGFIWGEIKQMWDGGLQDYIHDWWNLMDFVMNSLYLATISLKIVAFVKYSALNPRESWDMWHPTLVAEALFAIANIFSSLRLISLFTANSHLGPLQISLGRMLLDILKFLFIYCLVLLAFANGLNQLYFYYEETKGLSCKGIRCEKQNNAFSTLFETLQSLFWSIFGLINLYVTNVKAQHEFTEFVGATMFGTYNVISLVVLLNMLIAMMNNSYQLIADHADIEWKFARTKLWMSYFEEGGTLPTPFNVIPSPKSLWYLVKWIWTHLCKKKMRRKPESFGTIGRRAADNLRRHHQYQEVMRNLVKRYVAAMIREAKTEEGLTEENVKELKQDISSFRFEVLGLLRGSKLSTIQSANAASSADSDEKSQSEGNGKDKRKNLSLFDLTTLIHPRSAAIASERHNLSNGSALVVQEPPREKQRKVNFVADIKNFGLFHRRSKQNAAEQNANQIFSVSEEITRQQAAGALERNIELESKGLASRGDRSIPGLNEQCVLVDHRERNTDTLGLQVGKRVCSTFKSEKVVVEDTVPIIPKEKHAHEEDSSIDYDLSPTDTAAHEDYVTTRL
The test can be described thus: calcium entry via TRPC4 opening agents – cell-based, HEK293 TRPC4/mu-opioid, Fluo-4 calcium, dose response (AID 434937). It is filed as functional.

Test [4] is described as follows: growth inhibition of yeast DHODH-expressing 3D7 parasites – SYBR Green, dry powder samples, dose response (AID 1159570).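 Note: parasite growth measured after 72 hours of compound exposure.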 It is filed as functional, cell-based.
The nature of test [5]: P. falciparum Dd2 growth inhibitors, dose response, SYBR Green, cherry-picked samples (AID 1159567). It is filed as functional, cell-based.
Test [6] can be described thus: Dd2 malaria parasite growth inhibition potency – SYBR Green, dry powder samples, dose response (AID 1159566).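 Note: potency for growth inhibition with lower SYBR green DNA signal.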 It is filed as functional, cell-based.
A short description of test [7]: growth inhibition of PfATP4-mutant resistant parasites – NITD609-resistant line, SYBR Green, dry powder, dose response (AID 1159571).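 Note: parasites synchronized at ring stage by sorbitol before testing.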 It is filed as functional, cell-based.
The next test deals with T2, Bcl-2-related protein A1 (Mus musculus, UniProt Q07440).
T2 sequence (Q07440 whole entry): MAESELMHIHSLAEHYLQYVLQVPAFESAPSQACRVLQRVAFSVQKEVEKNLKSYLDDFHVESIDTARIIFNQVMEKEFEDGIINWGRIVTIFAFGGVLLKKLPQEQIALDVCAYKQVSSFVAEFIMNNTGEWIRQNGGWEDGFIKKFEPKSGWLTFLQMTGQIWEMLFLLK
The test can be described thus: displacement of Bid BH3 peptide from Bfl-1 – biochemical, fluorescence polarization, FITC-Bid, mouse, primary screen (AID 432). In general terms: Fluorescence polarisation rises when a labelled molecule tumbles more slowly, as on binding a larger partner.

Test [8] addresses T3, Dual specificity protein phosphatase 6 (Rattus norvegicus, UniProt Q64346).
T3 sequence (Q64346 whole entry): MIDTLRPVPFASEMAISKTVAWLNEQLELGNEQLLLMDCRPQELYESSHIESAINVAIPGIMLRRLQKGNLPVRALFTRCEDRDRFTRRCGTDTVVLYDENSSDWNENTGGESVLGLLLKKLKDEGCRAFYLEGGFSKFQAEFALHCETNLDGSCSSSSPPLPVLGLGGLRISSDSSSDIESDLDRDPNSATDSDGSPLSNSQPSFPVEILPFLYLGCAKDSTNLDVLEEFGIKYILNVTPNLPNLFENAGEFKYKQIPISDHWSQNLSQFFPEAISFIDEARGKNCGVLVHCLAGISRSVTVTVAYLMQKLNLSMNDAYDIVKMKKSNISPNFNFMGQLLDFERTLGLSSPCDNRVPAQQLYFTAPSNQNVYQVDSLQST
The test is described as follows: inhibition of rat DUSP6 enzyme activity – biochemical, in vitro, primary screen (AID 425).

Test [9] addresses T4, Small ubiquitin-related modifier 1 (Homo sapiens, UniProt P63165). The test is described as follows: SUMO1 protein interaction blockers, potency – biochemical, fluorescence polarization, uHTS hits, dose response (AID 624382). It is filed as functional. The following applies: read-out: IC50_Mean.
The target of test [10] is T4, Small ubiquitin-related modifier 1. The test is described as follows: SUMO1 protein-protein binding blockers, potency – biochemical, FRET, dose response (AID 624383). It is filed as functional. The following applies: read-out: IC50_Mean.
For test [11], the target named is Heat shock protein HSP 90-alpha (Homo sapiens, UniProt P07900). The test can be described thus: Luminescence-based dose response biochemical high throughput screening assay for inhibitors of the Heat Shock Protein 90 (HSP90). [Related pubchem assays: 1831 (Summary AID.), 1846 (Confirmation screen.), 1789 (Primary screen.)].
Test [12] is described as follows: toxicity to human hepatoma HepG2 cells – cell-based, cherry-picked samples, cytotoxicity control, dose response (AID 1159577). It is filed as functional.
The nature of test [13]: Luminescent dose response cell-based high throughput screening assay for inhibitors of the Janus kinase 2 mutant JAK2V617F. [Related pubchem assays: 1446 (Primary screen.), 1521 (Confirmation assay.), 1486 (Counter screen.)]. It is filed as functional.
A further test has as its target Large T antigen (Simian virus 40, UniProt P03070). It is filed as functional, Betapolyomavirus macacae.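 Note: Confirmatory-stage PubChem screen for compounds that inhibit SV40 T antigen.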
The nature of test [14]: Dd2 parasite growth inhibition in erythrocytes – SYBR Green, dry powder samples, set 9, dose response (AID 1159568). It is filed as functional, cell-based.
Test [15] can be described thus: Luminescence-based dose response cell-based high throughput screening assay for cytotoxic compounds using the IEC-6 intestinal epithelial cell line. [Related pubchem assays: 1858 (Summary AID.), 1825 (Counterscreen.), 1907 (Confirmation screen.)]. It is filed as functional.

The structures appear in SMILES notation. Active and inactive are the calls of the source. Where only a bound is given, the exact number is not on record here.

T4 sequence (P63165 whole entry): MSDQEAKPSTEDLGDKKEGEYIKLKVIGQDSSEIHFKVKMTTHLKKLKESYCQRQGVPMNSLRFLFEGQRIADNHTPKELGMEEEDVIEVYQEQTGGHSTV
Large T antigen, sequence (P03070 whole entry): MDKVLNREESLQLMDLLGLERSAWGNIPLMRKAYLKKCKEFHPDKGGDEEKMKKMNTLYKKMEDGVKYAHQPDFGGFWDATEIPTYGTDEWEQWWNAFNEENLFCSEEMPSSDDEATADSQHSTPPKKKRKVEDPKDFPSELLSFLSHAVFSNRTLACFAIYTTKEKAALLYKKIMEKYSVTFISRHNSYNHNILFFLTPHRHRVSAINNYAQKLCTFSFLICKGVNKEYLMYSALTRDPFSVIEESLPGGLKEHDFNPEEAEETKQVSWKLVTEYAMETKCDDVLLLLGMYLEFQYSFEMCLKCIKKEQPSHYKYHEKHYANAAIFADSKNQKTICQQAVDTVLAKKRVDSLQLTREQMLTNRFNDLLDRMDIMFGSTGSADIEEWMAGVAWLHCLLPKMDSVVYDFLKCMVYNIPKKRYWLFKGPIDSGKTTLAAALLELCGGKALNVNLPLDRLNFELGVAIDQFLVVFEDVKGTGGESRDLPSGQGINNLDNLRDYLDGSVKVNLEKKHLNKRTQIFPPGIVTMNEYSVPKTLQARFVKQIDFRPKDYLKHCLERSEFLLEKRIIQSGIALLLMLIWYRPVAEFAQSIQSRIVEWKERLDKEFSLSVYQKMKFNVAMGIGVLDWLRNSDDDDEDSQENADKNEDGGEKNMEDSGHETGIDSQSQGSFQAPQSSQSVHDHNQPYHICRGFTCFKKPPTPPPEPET

For orientation: EC50 means the midpoint of the concentration-response curve. As to `Cc1ccc2oc(=O)c3cnn(CC(=O)NC4CCN(Cc5ccccc5)CC4)c3c2c1`, the EC50 in test [1] was < 0.1 µM (active); in test [2], > 60 µM (not active); in test [3] it was 2.11 µM (active); in the test “cells” it was 0.079 µM (active).
A word on the AC50: it is the midpoint of the concentration-response curve, whichever way the signal moves. Take `O=C(c1ccccc1F)N1CC(=O)N2[C@H](C1)[C@@H](c1ccc(-c3ccc(F)cc3)cc1)[C@@H]2CO`: the concentration at half-maximal activity (AC50) in [4] is 1.72 µM (active); in test [5], 1.41 µM (active); in test [6] it was 0.497 µM (active); in test [7], 1.09 µM (active).
With `Nc1ccc2ncccc2c1N`, the IC50 on Bcl-2-related protein A1 was 3.49 µM (active); in [8], > 10 µM (not active); in test [9], > 66.6 µM (inactive); in [10] it was 3.21 µM (active).
`COC(=O)c1ccc(COc2ccc3c(C)c(C)c(=O)oc3c2)o1`: in [11], the IC50 is 1.07 µM (active).
For `C[C@@H]1CN([C@@H](C)CO)S(=O)(=O)c2ccc(/C=C/c3ccccc3)cc2O[C@@H]1CN(C)C(=O)Nc1ccc(F)cc1`, the AC50 was 5.09 µM (active) in test [5] and 25.5 µM (active) in test [12].
Take `Cc1oc2c(O)c(O)ccc2c(=O)c1-c1cnn(-c2ccccc2)c1`: the IC50 in test [13] is 2.04 µM (active); on Large T antigen, 10.2 µM (active).
For the compound `C[C@H]1CCCCO[C@H](CN(C)S(=O)(=O)c2ccc(F)cc2)[C@@H](C)CN([C@@H](C)CO)C(=O)c2cc(N(C)C)ccc2O1`, the half-maximal activity concentration (AC50) in test [14] is 4.91 µM (active).
For the compound `CCCc1cn(CC[C@H]2CC[C@@H](NS(=O)(=O)c3ccc(-c4ccccc4)cc3)[C@H](CO)O2)nn1`, the concentration at half-maximal activity (AC50) in [5] is 1.31 µM (active); in [12] it was 14.8 µM (active).
Consider `Cc1ncc(CN2CCCC(CCC(=O)NCc3ccccc3F)C2)s1` (centres undefined), for which the 50% effective concentration (EC50) was < 0.1 µM (active) in test [1], > 60 µM (not active) in test [2] and 0.099 µM (active) in “cells”.
`N=C(N)Nc1ccc(NC(=N)N)cc1`: the IC50 in [15] was 1.8 µM (active).

(Values after ChEMBL document CHEMBL1201862, “PubChem BioAssay data set” (2004).)
